This note sets out measurements from PubChem BioAssay (NCI).

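Results reflect a 48-hour exposure of cells in 96-well plates to compound at five concentrations. GI50 = concentration required for 50% inhibition of growth. TGI denotes the concentration required for complete inhibition of growth.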

Test systems include EKVX NSCLC; IGROV1 ovarian; K-562 leukemia; MOLT-4 leukemia; NCI-H522 lung; SF-295 CNS; TK-10 renal; UACC-257 melanoma; HCC-2998 colon.
What all share (test): NCI anticancer screen, dose series, 48 h

As to `COc1ccc(Nc2nnc(-c3cc(O)ccc3O)s2)cc1`, the GI50 was greater than 50 µM in the experiment on EKVX NSCLC; 28.9 µM with IGROV1 ovarian; 17.6 µM in the experiment on K-562 leukemia; 6.5 µM in the experiment on MOLT-4 leukemia; 16.1 µM in the experiment with NCI-H522 lung; greater than 50 µM with SF-295 CNS. The GI50 in the experiment on TK-10 renal was 48.4 µM; in the experiment on UACC-257 melanoma, greater than 50 µM. For the same compound, the TGI was greater than 50 µM in the experiment with EKVX NSCLC; greater than 50 µM in the experiment on IGROV1 ovarian; greater than 50 µM in the experiment on K-562 leukemia; 20.6 µM with MOLT-4 leukemia; greater than 50 µM with NCI-H522 lung; greater than 50 µM with SF-295 CNS. Also, the TGI with TK-10 renal and with UACC-257 melanoma was greater than 50 µM throughout.

`O=C1/C(=C/c2cccc(Cl)c2Cl)N=C(c2ccccc2)N1C1CC1`: the GI50 with EKVX NSCLC is 9.9 µM; with IGROV1 ovarian it was 19.7 µM; in the experiment on K-562 leukemia, 13.5 µM; in the experiment on MOLT-4 leukemia, 19.2 µM; in the experiment with NCI-H522 lung it was 19.8 µM; in the experiment with SF-295 CNS, 12.7 µM. Besides, the GI50 in the experiment on TK-10 renal is 10.7 µM; in the experiment on UACC-257 melanoma, 12.2 µM. In addition, the TGI was 22.2 µM with EKVX NSCLC; greater than 50 µM with IGROV1 ovarian; greater than 50 µM in the experiment on K-562 leukemia; greater than 50 µM with MOLT-4 leukemia; greater than 50 µM in the experiment with NCI-H522 lung; 31.3 µM in the experiment on SF-295 CNS. The figures for the TGI in the experiment on TK-10 renal and with UACC-257 melanoma were 27.7 µM and 26.2 µM, respectively.

`CCCc1nc(NC#N)nc(C(=O)Nc2ccccc2)c1CC`: the TGI in the experiment with EKVX NSCLC, with HCC-2998 colon, in the experiment on IGROV1 ovarian, in the experiment on K-562 leukemia, with MOLT-4 leukemia and with NCI-H522 lung was greater than 100 µM in each case. In addition, the TGI with SF-295 CNS, in the experiment with TK-10 renal and in the experiment on UACC-257 melanoma was greater than 100 µM throughout.

Take `COc1ccc(NC(=O)/C(Cc2cc(=O)oc3cc(O)ccc23)=N\NC(C)(C)C)c(OC)c1`: the TGI in the experiment with EKVX NSCLC, in the experiment with HCC-2998 colon, with IGROV1 ovarian, with K-562 leukemia, in the experiment on MOLT-4 leukemia and in the experiment with NCI-H522 lung was greater than 100 µM in each case. In addition, the TGI in the experiment with SF-295 CNS, in the experiment on TK-10 renal and in the experiment with UACC-257 melanoma was greater than 100 µM throughout.

For `C1=CC(N(c2ccccc2)C2C=CCCC2)CCC1` (centres undefined), the TGI in the experiment with EKVX NSCLC, with IGROV1 ovarian, in the experiment with K-562 leukemia, in the experiment on NCI-H522 lung, in the experiment on SF-295 CNS and in the experiment with TK-10 renal was greater than 100 µM throughout.

With `CC(=O)c1sc(Nc2nnc(-c3ccc(-c4nnc(Nc5nc(C)c(C(C)=O)s5)o4)cc3)o2)nc1C`, the TGI was greater than 100 µM in the experiment on EKVX NSCLC; greater than 100 µM in the experiment on HCC-2998 colon; greater than 100 µM in the experiment with IGROV1 ovarian; greater than 100 µM in the experiment with K-562 leukemia; greater than 100 µM in the experiment on MOLT-4 leukemia; greater than 10 µM in the experiment on NCI-H522 lung. For the same compound, the TGI in the experiment with SF-295 CNS, in the experiment on TK-10 renal and in the experiment on UACC-257 melanoma was greater than 100 µM each time.

For the compound `CCC[CH2][Sn]([Cl])([CH2]CCC)[CH2]CCC`, the GI50 in the experiment on EKVX NSCLC is 0.0564 µM; in the experiment on IGROV1 ovarian, 0.169 µM; in the experiment with K-562 leukemia it was 0.0411 µM; in the experiment on MOLT-4 leukemia, 0.0522 µM; in the experiment with NCI-H522 lung, 0.116 µM; with SF-295 CNS it was 0.12 µM. Moreover, the GI50 in the experiment on TK-10 renal was 0.129 µM; in the experiment with UACC-257 melanoma, 0.108 µM. The TGI in the experiment on EKVX NSCLC amounted to 0.364 µM; with IGROV1 ovarian, 0.625 µM; in the experiment on K-562 leukemia, 0.204 µM; in the experiment with MOLT-4 leukemia it was 0.632 µM; in the experiment with NCI-H522 lung, 0.27 µM; with SF-295 CNS it was 0.245 µM. For the same compound, the TGI with TK-10 renal turned out to be 0.261 µM; with UACC-257 melanoma, 0.248 µM.

As for `COc1cc(F)ccc1-c1ncnc(Nc2cccc(CS(C)(=N)=O)c2)n1` (centres undefined), the GI50 in the experiment with EKVX NSCLC was 1.4 µM; in the experiment on HCC-2998 colon it was 2.54 µM; in the experiment with IGROV1 ovarian, 0.65 µM; in the experiment with K-562 leukemia it was 3.78 µM; in the experiment with MOLT-4 leukemia it was 2.01 µM; with NCI-H522 lung it was 1.6 µM. Besides, the TGI in the experiment on EKVX NSCLC is 37.2 µM; with HCC-2998 colon, greater than 100 µM; in the experiment with IGROV1 ovarian, greater than 100 µM; in the experiment on K-562 leukemia, greater than 100 µM; in the experiment with MOLT-4 leukemia, 7.06 µM; with NCI-H522 lung it was 6.34 µM.

Take `N#CC(C(=O)C(=O)C(C#N)c1ccc(Br)cc1)c1ccc(Br)cc1` (centres undefined): the TGI in the experiment on EKVX NSCLC is 24.6 µM; with HCC-2998 colon, 24.5 µM; in the experiment on IGROV1 ovarian, 30 µM; in the experiment on K-562 leukemia it was greater than 100 µM; with MOLT-4 leukemia, 47.1 µM; in the experiment with SF-295 CNS, 26.6 µM. Further, the TGI in the experiment on TK-10 renal worked out at 30.6 µM; with UACC-257 melanoma, 25.1 µM.

As for `Cc1ccc(/C=C/C(=O)c2sc(-c3nc(C)c(C(=O)/C=C/c4ccc(C)cc4)s3)nc2C)cc1`, the TGI in the experiment on EKVX NSCLC, in the experiment with HCC-2998 colon, in the experiment on IGROV1 ovarian, with K-562 leukemia, in the experiment on MOLT-4 leukemia and with NCI-H522 lung was greater than 100 µM in each case. The TGI with SF-295 CNS, with TK-10 renal and in the experiment with UACC-257 melanoma was greater than 100 µM throughout.

Take `CCOC(=O)C(=[N+]=[N-])[Si](C)(C)C`: the TGI in the experiment on HCC-2998 colon, in the experiment with IGROV1 ovarian, in the experiment with SF-295 CNS, in the experiment with TK-10 renal and in the experiment with UACC-257 melanoma was greater than 100 µM throughout.

With `O=C(Nc1nc(=S)c2c(ncn2CCOC(=O)c2ccccc2)[nH]1)c1ccccc1`, the TGI in the experiment on EKVX NSCLC is greater than 100 µM; in the experiment on HCC-2998 colon, greater than 100 µM; in the experiment on IGROV1 ovarian, greater than 100 µM; with K-562 leukemia, greater than 100 µM; with NCI-H522 lung, 68.1 µM; in the experiment with SF-295 CNS, greater than 100 µM. Further, the TGI in the experiment with TK-10 renal and in the experiment with UACC-257 melanoma was greater than 100 µM in each case.

`O=C(/C=C/c1cccc2ccccc12)c1ccccc1Cl`: the TGI with EKVX NSCLC is 28.6 µM; in the experiment on HCC-2998 colon, 28.4 µM; with IGROV1 ovarian it was 31 µM; in the experiment with K-562 leukemia, greater than 100 µM; in the experiment on MOLT-4 leukemia it was 8.82 µM; in the experiment with NCI-H522 lung, 27.5 µM. In addition, the TGI in the experiment with TK-10 renal is 28.1 µM; with UACC-257 melanoma, 31.3 µM.

As to `Cc1cc(N(CCC#N)CCC#N)ccc1N=Nc1ccc(C(=O)O)cc1`, the TGI with EKVX NSCLC, in the experiment with HCC-2998 colon, in the experiment on IGROV1 ovarian, in the experiment on MOLT-4 leukemia, in the experiment with NCI-H522 lung and with SF-295 CNS was greater than 100 µM in each case. Besides, the TGI with TK-10 renal and in the experiment with UACC-257 melanoma was greater than 100 µM each time.
